Test results as given in patent publication US8278436B2, “Glycosylated warfarin analogs and uses thereof” (priority 2008, dated 2012).
Read-outs that look alike come from different tables or passages of the source.

How the values were obtained:
Format in all cases: cell-based
[1] = test system: HT-29 human colorectal adenocarcinoma cells; assay: cell proliferation assay, HT-29
Excerpt: (§1) In this Example, the warfarin neoglycosides of the invention were screened for anti-tumor activity in cell proliferation assays using the following tumor cells lines: A549—human lung adenocarcinoma; H1299—human lung adenocarcinoma (p53 null); HCT-15—human colorectal adenocarcinoma; HT-29—human colorectal adenocarcinoma; MCF7—human breast adenocarcinoma; NCI-H460—human lung adenocarcinoma; SF-268—human CNS adenocarcinoma; and SKOV-3—human ovarian adenocarcinoma.
(§2) All cell lines were maintained as previously reported (see Langenhan, J. M.; Peters, N. R.; Guzei, I. A.; Hoffmann, F. M.; Thorson, J. S. Proc. Natl. Acad. Sci. USA 2005, 102, 12305-12310, which is incorporated by reference herein). Cells were harvested using 0.25% trypsin and 0.1% EDTA and counted in a Cellometer Auto T4 cell counter (Nexcelom, Inc.) prior to dilution for assay plating. Cells were plated at a denity of 500 cells per well in 50 μL volumes in 384-well clear-bottom tissue culture plates (Corning-Costar, Inc.).
(§3) Compounds were added from the 384-well compound stock plates at a 1:100 dilution using a Biomek FX liquid handler equipped with a 384-channel head (Beckman Coulter, Inc.). The plates were incubated for 7 days at 37° C. in a 5% CO2 atmosphere prior to performing the assays. Calcein AM (acetoxymethyl ester) reagent and EthD-1 (30 μL, 10 μM CAM and 100 μM EthD-1) was added and the cells were incubated for 30 min at 37° C. […] resulting from incubation with Calcein AM and EthD-1 was read using a Safire-2 microplate reader at the appropriate wavelengths. To lyse the cells, 15 μL of CellTiter-Glo reagent (Promega Corporation, Inc.) was added and the cells were incubated for 10 min at room temperature with gentle agitation. The luminescence of each plate was re-read to confirm the observed inhibition.
(§4) IC50s for cell proliferation assays were determined for Calcein AM, the ratio of live/dead cells (Calcein AM/EthD-1), and CellTiter-Glo using XLfit 4.0 as previously described (see Langenhan, J. M.; Peters, N. R.; Guzei, I. A.; Hoffmann, F. M.; Thorson, J. S. Proc. Natl. Acad. Sci. USA 2005, 102, 12305-12310, which is incorporated by reference herein). The IC50 determined using the best fit curve for dosage response from any of the 3 assays is reported as the final IC50. The best fit curve is defined as the curve with the lowest standard error.

[2] = test system: HCT-15 human colorectal adenocarcinoma cells; assay: cell proliferation assay, HCT-15; conditions: for IC50: Table 3 summary of most active compounds, read-out: HCT15 Colorectal
Excerpt: as §1, §2, §3, §4

[3] = test system: H1299 human lung adenocarcinoma (p53 null) cells; assay: cell proliferation assay, H1299; conditions: Table 3 summary of most active compounds
Excerpt: as §1, §2, §3
as §4, with “IC50.” for “IC50. The best fit curve is defined as the curve with the lowest standard error.”

[4] = test system: NCI-H460 human lung adenocarcinoma cells; assay: cell proliferation assay, NCI-H460
Excerpt: as §1, §2, §3, §4

[5] = test system: A549 human lung adenocarcinoma cells; assay: cell proliferation assay, A549; conditions: read-out: A549 Lung (+p53)
Excerpt: as §1, §2, §3, §4

[6] = test system: MCF7 human breast adenocarcinoma cells; assay: cell proliferation assay, MCF7
Excerpt: as §1, §2, §3
as §4, with “IC50.” for “IC50. The best fit curve is defined as the curve with the lowest standard error.”

[7] = test system: SKOV-3 human ovarian adenocarcinoma cells; assay: cell proliferation assay, SKOV-3; conditions: read-out: SKOV3 Ovarian
Excerpt: as §1, §2, §3, §4

NCI/ADR-RES = assay: cell proliferation assay, NCI/ADR-RES; conditions: Table 3 summary of most active compounds
Experimental: as §2, §3
as §4, with “IC50.” for “IC50. The best fit curve is defined as the curve with the lowest standard error.”

[8] = test system: SF-268 human CNS adenocarcinoma cells; assay: cell proliferation assay, SF-268
Excerpt: as §1, §2, §3
as §4, with “IC50.” for “IC50. The best fit curve is defined as the curve with the lowest standard error.”

[9] = Table 3 summary of most active compounds, listed as L-xylose
[10] = Table 3 summary of most active compounds, listed as D-lyxose
[11] = Table 3 summary of most active compounds, listed as D-xylose
[12] = Table 3 summary of most active compounds, IC50, read-out: H729 Colorectal
[13] = Table 3 summary of most active compounds, IC50, read-out: SF268 Giloblast
[14] = Table 3 summary of most active compounds
[15] = Table 3 summary of most active compounds, listed as L-arabinose
[16] = Table 3 summary of most active compounds, listed as D-ribose
[17] = Table 3 summary of most active compounds, listed as L-ribose

CON(C(C)CC(c1ccccc1)c1c(O)c2ccccc2oc1=O)C1OCC(O)C(O)C1O (mixture of isomers) [WARF Analog 1]
IC50 ([1]; Table 3 summary of most active compounds, IC50, listed as L-xylose, read-out: H729 Colorectal): 37 µM | IC50 ([2]; listed as L-xylose): 14 µM | IC50 ([3]; listed as L-xylose): 30 µM | IC50 [4, 9]: > 100 µM | IC50 [5, 9]: 67 µM | IC50 [6, 9]: 15 µM | IC50 [7, 9]: 45 µM | IC50 (NCI/ADR-RES; listed as L-xylose): 50 µM

CON(C(C)CC(c1ccccc1)c1c(O)c2ccccc2oc1=O)C1OCC(O)C(O)C1O (mixture of isomers) [WARF Analog 6]
IC50 ([1]; Table 3 summary of most active compounds, IC50, listed as D-lyxose, read-out: H729 Colorectal): 52 µM | level of activity, in words ([2]; HCT 15 colorectal cell lines, compared with all the neoglycosides tested): highest level of activity | IC50 ([2]; listed as D-lyxose): 7 µM | IC50 ([8]; Table 3 summary of most active compounds, IC50, listed as D-lyxose, read-out: SF268 Giloblast): 39 µM | IC50 [4, 10]: > 100 µM | IC50 [5, 10]: 76 µM | IC50 [7, 10]: 47 µM | IC50 (NCI/ADR-RES; listed as D-lyxose): 57 µM

CON(C(C)CC(c1ccccc1)c1c(O)c2ccccc2oc1=O)C1OCC(O)C(O)C1O (mixture of isomers) [WARF Analog 9]
IC50 ([1]; Table 3 summary of most active compounds, IC50, listed as D-xylose, read-out: H729 Colorectal): 43 µM | IC50 ([2]; listed as D-xylose): 11 µM | IC50 ([3]; listed as D-xylose): 27 µM | IC50 ([8]; Table 3 summary of most active compounds, IC50, listed as D-xylose, read-out: SF268 Giloblast): 37 µM | IC50 [4, 11]: 99 µM | IC50 [5, 11]: 40 µM | IC50 [6, 11]: 12 µM | IC50 [7, 11]: 52 µM | IC50 (NCI/ADR-RES; listed as D-xylose): 38 µM

CON(C(C)CC(c1ccccc1)c1c(O)c2ccccc2oc1=O)C1CC(O)C(O)CO1 (mixture of isomers) [WARF Analog 11]
IC50 [1, 12]: > 100 µM | IC50 [2]: 13 µM | IC50 [3]: 92 µM | IC50 [8, 13]: > 100 µM | IC50 [4, 14]: > 100 µM | IC50 [5, 14]: > 100 µM | IC50 [6, 14]: 78 µM | IC50 [7, 14]: > 100 µM | IC50 (NCI/ADR-RES): > 100 µM

CON(C(C)CC(c1ccccc1)c1c(O)c2ccccc2oc1=O)C1OC(C)C(O)C(O)C1O (mixture of isomers) [WARF Analog 12]
IC50 ([1]; Table 3 summary of most active compounds, IC50, listed as L-fucose, read-out: H729 Colorectal): 80 µM | IC50 ([2]; listed as L-fucose): 9 µM | IC50 [3]: > 100 µM | IC50 ([8]; Table 3 summary of most active compounds, IC50, listed as L-fucose, read-out: SF268 Giloblast): 89 µM | IC50 [4, 14]: > 100 µM | IC50 [5, 14]: > 100 µM | IC50 [6, 14]: > 100 µM | IC50 ([7]; Table 3 summary of most active compounds, listed as L-fucose): 81 µM | IC50 (NCI/ADR-RES): > 100 µM

CON(C(C)CC(c1ccccc1)c1c(O)c2ccccc2oc1=O)C1OCC(O)C(O)C1O (mixture of isomers) [WARF Analog 15]
IC50 ([1]; Table 3 summary of most active compounds, IC50, listed as L-arabinose, read-out: H729 Colorectal): 97 µM | IC50 ([2]; listed as L-arabinose): 49 µM | IC50 ([3]; listed as L-arabinose): 51 µM | IC50 ([8]; Table 3 summary of most active compounds, IC50, listed as L-arabinose, read-out: SF268 Giloblast): 69 µM | IC50 [4, 15]: > 100 µM | IC50 [5, 15]: 48 µM | IC50 [6, 15]: 79 µM | IC50 [7, 15]: 76 µM | IC50 (NCI/ADR-RES; listed as L-arabinose): 68 µM

CON(C(C)CC(c1ccccc1)c1c(O)c2ccccc2oc1=O)C1OCC(O)C(O)C1O (mixture of isomers) [WARF Analog 22]
IC50 ([1]; Table 3 summary of most active compounds, IC50, listed as D-ribose, read-out: H729 Colorectal): 77 µM | IC50 ([2]; listed as D-ribose): 27 µM | IC50 ([3]; listed as D-ribose): 44 µM | IC50 ([8]; Table 3 summary of most active compounds, IC50, listed as D-ribose, read-out: SF268 Giloblast): 72 µM | IC50 [4, 16]: > 100 µM | IC50 [5, 16]: > 100 µM | IC50 [6, 16]: 41 µM | IC50 [7, 16]: 60 µM | IC50 (NCI/ADR-RES; listed as D-ribose): 66 µM

CON(C(C)CC(c1ccccc1)c1c(O)c2ccccc2oc1=O)C1OCC(O)C(O)C1O (mixture of isomers) [WARF Analog 25]
IC50 ([1]; Table 3 summary of most active compounds, IC50, listed as L-ribose, read-out: H729 Colorectal): 72 µM | IC50 ([2]; listed as L-ribose): 37 µM | IC50 ([8]; Table 3 summary of most active compounds, IC50, listed as L-ribose, read-out: SF268 Giloblast): > 100 µM | IC50 [4, 17]: > 100 µM | IC50 [5, 17]: 72 µM | IC50 [6, 17]: 45 µM | IC50 [7, 17]: 60 µM | IC50 (NCI/ADR-RES; listed as L-ribose): 62 µM

CON(C(C)CC(c1ccccc1)c1c(O)c2ccccc2oc1=O)C1OC(C)C(O)C(O)C1O (mixture of isomers) [WARF Analog 50]
IC50 ([1]; Table 3 summary of most active compounds, IC50, listed as 6-deoxy-D-glucose, read-out: H729 Colorectal): > 100 µM | IC50 ([2]; listed as 6-deoxy-D-glucose): 14 µM | IC50 ([8]; Table 3 summary of most active compounds, IC50, listed as 6-deoxy-D-glucose, read-out: SF268 Giloblast): > 100 µM | IC50 [4, 14]: > 100 µM | IC50 [5, 14]: > 100 µM | IC50 ([7]; Table 3 summary of most active compounds, listed as 6-deoxy-D-glucose): > 100 µM | IC50 (NCI/ADR-RES): > 100 µM

CON(C(C)CC(c1ccccc1)c1c(O)c2ccccc2oc1=O)C1O[C@H](COCc2ccccc2)[C@@H](OCc2ccccc2)[C@@H]1OCc1ccccc1 (some centres unmarked) [WARF Analog 42]
IC50 [1, 12]: 19 µM | IC50 [2]: 11 µM | IC50 [3]: 19 µM | IC50 [8, 13]: 20 µM | IC50 [5, 14]: 27 µM | IC50 [6, 14]: 29 µM | IC50 [7, 14]: 27 µM | IC50 (NCI/ADR-RES): 20 µM

CC(=O)CC(c1ccccc1)c1c(O)c2ccccc2oc1=O (centres unmarked) [WARF Analog A, 4-hydroxy-3-(3-oxo-1-phenylbutyl)-2H-1-benzopyran-2-one, reference compound]
IC50 ([1]; Homo sapiens, HT-29, read-out: H729 Colorectal): 735 µM | IC50 ([2]; Homo sapiens, HCT-15): 543 µM | IC50 ([8]; Homo sapiens, SF-268, read-out: SF268 Giloblast): 765 µM | IC50 ([4]; Homo sapiens, NCI-H460, Table 3 summary of most active compounds): 557 µM | IC50 ([5]; Homo sapiens, A549, Table 3 summary of most active compounds): 781 µM | IC50 ([6]; Homo sapiens, MCF7, Table 3 summary of most active compounds): 301 µM | IC50 ([7]; Homo sapiens, SK-OV-3, Table 3 summary of most active compounds): 393 µM | IC50 (NCI/ADR-RES; Homo sapiens): > 100 µM
